Test [1] deals with MCF-7 cells. Briefly: mammosphere formation assay. Type of test: cell-based, human. The note with it: MCF-7, 5 μM; for MFE (%) ave / MFE (control = 1) ave / MFE (%): 7 days; for MFE (%) ave: mean of 3, control 0.87; for MFE (control = 1) ave: relative to control = 1; for MFE (%): single replicates. As to the method:
We also evaluated antiproliferative activity against cancer stem cells (CSCs), which are a small sub-population in tumour bulk identified in most cancer cells and clinical samples[52]. CSCs have been a major problem in cancer therapy because they are responsible for recurrence, metastasis and drug resistance to chemotherapeutic agents that affect proliferative cells[53]–[56]. Anti-CSC activity was evaluated by the inhibition of sphere-forming ability, a well-studied method to enrich the CSC-like population, and selective cytotoxicity against one of the most reliable CSC markers, aldehyde dehydrogenase (ALDH)-positive cells. […] Low-toxicity 16 was also added as a negative control. […] We next evaluated the three DDPs that inhibited mammosphere formations against ALDH-positive cells, a functional marker for breast CSCs. MCF-7 cells were treated with 1 μM of 11, 12 or 22, and the ALDH-positive cell population was analysed by using a fluorescence activated cell sorter (Supplementary Fig. 46b). […] Thus, for the first time, we successfully found DDPs with potent antiproliferative effects on the CSC-like population in MCF-7 cells, which may lead to new anti-CSC drugs.
Fig. 5 DDPs show anti-CSC activity in breast cancer cell line MCF-7. a Effect of DDPs on mammosphere formation. After the cells were cultured in the presence of 5 μM DDPs for 7 days, the number of mammospheres was microscopically counted and the percentage of mammosphere-forming cells was determined as mammosphere-forming efficiency (MFE; %). Data represent mean ± s.d. from three independent replicate experiments. P-values were calculated by a two-sided unpaired Student’s t-test, compared with control. b Micrographs show representative images of mammosphere formation from three independent replicate experiments using compound 11, 12, 16, 22. The scale bar, […]. c Effect of DDPs (1 μM, 3 days) on ALDH-positive cells in MCF-7 cells. Data represent mean ± s.d. from three independent replicate experiments. P-values were calculated by a two-sided unpaired Student’s t-test, compared with control. d Dose-dependent effect of compound 12 on ALDH-positive cells in MCF-7 cells. Data represent mean ± s.d. from three independent replicate experiments. P-values were calculated by a two-sided unpaired Student’s t-test. Source data underlying Fig. 5a, c, d are provided in a Source Data file.

Test [2] deals with hepatitis B virus (HBV), measles virus (MV), Epstein-Barr virus (EBV), herpes simplex virus (HSV). Description: preliminary anti-viral screening (other viruses). It counts as cell-based. The text has this: We examined the inhibitory activities of DDPs against various species of bacteria (both gram-negative and gram-positive bacteria), fungi and viruses. […] In contrast, preliminary screening of the DDPs for anti-viral agents with hepatitis B virus (HBV), measles virus (MV), Epstein-Barr virus (EBV), herpes simplex virus (HSV) and human immunodeficiency virus-1 (HIV-1) indicated their selective inhibition of HIV.

Test [3] concerns BSY-1. Description: cells. The arrangement: species or system JFCR39 human cancer cell lines; JFCR39 panel growth inhibition, sulforhodamine B total protein after 48 h. The note with it: for GI50: BSY-1, 48 h. As to the method:
(§1) Supplementary Note 24. Antiproliferative effects across the panel of JFCR39 cancer cell lines A panel of 39 human cancer cell lines, termed JFCR39, were previously described13-16. Cells were grown in RPMI-1640 (FUJIFILM Wako Pure Chemical Corporation, Tokyo, Japan) supplemented with 1 µg mL-1 kanamycin and 5% (v/v) fetal bovine serum (Nichirei Biosciences Inc, Tokyo, Japan) and incubated at 37°C in a humidified atmosphere supplemented with 5% CO2. Drug efficacy was assessed as changes in total cellular protein after 48 hours of drug treatment using a sulforhodamine B assay. Assays were done in duplicate and the GI50 was calculated as described previously13,16. The antitumor profile across the JFCR39 panel, or fingerprints were then compared to reference database containing ~2000 compounds by COMPARE algorithm16,17. Initially, we evaluated new DDP analogues for their antiproliferative activities across the panel of 39 human cancer cell lines, JFCR39[50],[51].

Test [4] relates to DMS273. Briefly: cells. The arrangement: species or system JFCR39 human cancer cell lines; JFCR39 panel growth inhibition, sulforhodamine B total protein after 48 h. The note with it: for GI50: Homo sapiens, DMS-273, 48 h. As to the method: as §1
Test [5] relates to HCT-15. Briefly: cells. Also on record: species or system JFCR39 human cancer cell lines; JFCR39 panel growth inhibition, sulforhodamine B total protein after 48 h. Conditions: for GI50: Homo sapiens, HCT-15, 48 h. As to the method:
as §1

Test [6] concerns KM-12. Description: cells. The arrangement: species or system JFCR39 human cancer cell lines; JFCR39 panel growth inhibition, sulforhodamine B total protein after 48 h. Conditions: Homo sapiens, KM12, 48 h. The protocol: as §1
Test [7] concerns MCF-7. Briefly: cells. Also on record: species or system JFCR39 human cancer cell lines; JFCR39 panel growth inhibition, sulforhodamine B total protein after 48 h. The note with it: Homo sapiens, MCF7, 48 h. The protocol: as §1
The test system of test [8] is NCI-H23. Description: cells. Conditions: Homo sapiens, NCI-H23, 48 h. Also on record: species or system JFCR39 human cancer cell lines; JFCR39 panel growth inhibition, sulforhodamine B total protein after 48 h. The protocol: as §1
Test [9] relates to OVCAR-8. Description: cells. The arrangement: species or system JFCR39 human cancer cell lines; JFCR39 panel growth inhibition, sulforhodamine B total protein after 48 h. Conditions: Homo sapiens, OVCAR-8, 48 h. The protocol: as §1
Test [10] relates to SF-268. Briefly: cells. The arrangement: species or system JFCR39 human cancer cell lines; JFCR39 panel growth inhibition, sulforhodamine B total protein after 48 h. The note with it: Homo sapiens, SF-268, 48 h. As to the method:
as §1

Test [11] relates to SK-OV-3. Briefly: cells. The arrangement: species or system JFCR39 human cancer cell lines; JFCR39 panel growth inhibition, sulforhodamine B total protein after 48 h. The note with it: Homo sapiens, SK-OV-3, 48 h. The protocol:
as §1

In test [12] the test system is ACHN. Description: cells. Also on record: species or system JFCR39 human cancer cell lines; JFCR39 panel growth inhibition, sulforhodamine B total protein after 48 h. Conditions: 48 h; for GI50: Homo sapiens, ACHN. As to the method: as §1
Test [13] concerns MKN1. Briefly: cells. The arrangement: species or system JFCR39 human cancer cell lines; JFCR39 panel growth inhibition, sulforhodamine B total protein after 48 h. Conditions: Homo sapiens, MKN-1, 48 h. As to the method:
as §1

Where [14] appears, read: 48 h, inhibitor, Log GI50, 48 h.

Where “and” joins values, the source holds several entries; their conditions need not be identical. Equal values may be shown once. Entries after “also recorded” stand apart in the source; their conditions may differ.

Usually GI50 stands for the concentration that inhibits growth by half. A high value points to lower sensitivity of the cells.

Regarding `C=C1CCC2C3(C)CC(C=C(C)C)OC3CCC2(C)C1Cc1c(OC)oc(C)c(C)c1=O` (stereo not drawn) [Compound 23], in [1], the “MFE (%) ave” value stood at 0.66%; the “MFE (control = 1) ave” value was determined as 0.76; the “MFE (%)” value was 0.60% and 0.72% and 0.66%. Besides, the “effect on other viruses” value in test [2] is “without affecting other viruses”.
Take `C=C1CC[C@H]2[C@]3(C)C[C@H](C=C(C)C)O[C@H]3CC[C@]2(C)[C@@H]1Cc1c(OC)oc(CO)c(C)c1=O` [Compound 18]: in test [1], the “MFE (%) ave” value amounted to 0.64%; the “MFE (control = 1) ave” value came to 0.74; the “MFE (%)” value is 0.66% and 0.58% and 0.68%. The “effect on other viruses” value in test [2] was “without affecting other viruses”.
With `C=C1CC[C@@H]2[C@](C)(CC[C@H]3O[C@H](C=C(C)C)C[C@@]23C)[C@@H]1Cc1c(O)c(C)c(C)oc1=O` [Compound 10, higginsianin A], the “effect on other viruses” value in test [2] is listed as “without affecting other viruses”.
The same measure, in the same setting: the same measure for `C=C1CC[C@H]2[C@]3(C)C[C@H](C=C(C)C)O[C@H]3CC[C@]2(C)[C@@H]1Cc1c(OC)oc(C)c(C)c1=O` [Compound 24]: “without affecting other viruses”.
For `C=C1CC[C@H]2[C@]3(C)C[C@@H](C=C(C)C)O[C@H]3CC[C@]2(C)[C@@H]1Cc1c(O)c(C)c(C)oc1=O` [Compound 5, subglutinol A], in test [1], the “MFE (%) ave” value is recorded as 1.13%; the “MFE (control = 1) ave” value worked out at 1.30; the “MFE (%)” value was 1.04% and 1.24% and 1.10%. The “effect on other viruses” value in test [2] is “without affecting other viruses”.
In the case of `C=C1CCC2C(C)(CC(=O)C=C(C)C)C(O)CCC2(C)C1Cc1c(O)c(C)c(C)oc1=O` (stereo not drawn) [Compound 7], the 50% growth inhibitory concentration (GI50) in test [3] is 37 µM; in test [4], 14.1 µM; in [5] it was 55.6 µM; in [6], 56 µM; in test [7] it was 22.6 µM; in test [8] it was 13.2 µM. The figures for the 50% growth inhibitory concentration (GI50) in test [9], in test [10] and in test [11] were 35.7 µM, 77.8 µM and 60.8 µM, respectively.
`C=C1CC[C@@H]2[C@](C)(CC[C@H]3O[C@H](C=C(C)C)C[C@@]23C)[C@@H]1Cc1c(OC)oc(CO)c(C)c1=O` [Compound 20]: the “MFE (%) ave” value in test [1] was determined as 0.77%. Moreover, the “MFE (control = 1) ave” value in test [1] came to 0.89. Besides, the “MFE (%)” value in [1] was 0.76% and 0.80%. For the same molecule, the “effect on other viruses” value in test [2] is reported as “without affecting other viruses”. For the same molecule, the 50% growth inhibitory concentration (GI50) is 11.1 µM in test [12]; 12.2 µM in test [3]; 0.0893 µM in [4]; 10.1 µM in [5]; 14.8 µM in test [6]; 14.6 µM in [13]. The GI50 in test [9] is 12.3 µM; in test [10], 12.7 µM; in test [11], 13.3 µM.
On to `C=C1CCC2C(C)(CCC=C(C)C)C(O)CCC2(C)C1Cc1c(OC)oc(C)c(C)c1=O` (stereo not drawn) [Compound 11], for which the “effect on sphere formation” value in test [1] is recorded as “clearly inhibited sphere formation”. For the same molecule, the “MFE (%) ave” value in test [1] is recorded as 0.46%. Further, in [1], the “MFE (control = 1) ave” value is listed as 0.53. In addition, the “MFE (%)” value in test [1] is 0.47% and 0.44%. Besides, the “effect on other viruses” value in [2] was “without affecting other viruses”. Further, the GI50 is 11 µM in test [12]; 11.5 µM in test [3]; 0.199 µM in [4]; 1.22 µM in [5]; 1.88 µM in [7]; 30.6 µM in test [13]. Besides, the GI50 is 3.61 µM in test [9] and 14 µM in test [10].
With `C=C1CC[C@H]2[C@]3(C)C[C@@H](C=C(C)C)O[C@H]3CC[C@]2(C)[C@@H]1Cc1c(OC)oc(CO)c(C)c1=O` [Compound 17], the “MFE (%) ave” value in test [1] is on record as 0.65%. For the same molecule, the “MFE (control = 1) ave” value in test [1] came to 0.75. For the same molecule, in test [1], the “MFE (%)” value was 0.66% and 0.68% and 0.60%. Moreover, in test [2], the “effect on other viruses” value is “without affecting other viruses”. Further, the GI50 was 10.8 µM in [12]; 12.8 µM in [3]; 0.713 µM in test [4]; 0.942 µM in test [5]; 14.5 µM in test [6]; 19.3 µM in test [13]. The concentration for 50% growth inhibition (GI50) is 10.8 µM in [8], 10.8 µM in test [9], 13.2 µM in test [10] and 12.1 µM in test [11].
As for `C=C1CCC2C(C)(CCC=C(C)C)C(O)CCC2(C)C1Cc1c(OC)oc(CO)c(C)c1=O` (stereo not drawn) [Compound 12], the “effect on sphere formation” value in [1] is “clearly inhibited sphere formation; also recorded: strongest effect on sphere formation”. Also, the “MFE (%) ave” value in [1] is on record as 0.21%. Further, the “MFE (control = 1) ave” value in test [1] was determined as 0.24. For the same molecule, the “MFE (%)” value in test [1] was 0.18% and 0.21% and 0.23%. For the same molecule, the “effect on other viruses” value in test [2] is on record as “without affecting other viruses”. Moreover, the “Log GI50” value is -4.976 M in test [12] (inhibitor, Log GI50, 48 h); -5.304 M in test [3] (setting [14]); -7.063 M in test [4] (setting [14]); -5.533 M in test [5] (setting [14]). Besides, the concentration for 50% growth inhibition (GI50) is 12.9 µM in [6]; 13.7 µM in test [13]; 1.95 µM in test [8]; 5.64 µM in test [9]; 12.3 µM in test [10]; 12.6 µM in test [11].

Values taken from article PMC7156458, “Synthetic biology based construction of biological activity-related library of fungal decalin-containing diterpenoid pyrones” (Nature Communications, 2020).
